We go through 15 molecules from patent publication EP4810497A1, “ISOQUINOLINE DERIVATIVE, SYNTHESIS METHOD THEREFOR, AND USE THEREOF” (Harbin Gloria Pharmaceuticals Co., Ltd., priority 2023, dated 2025).

In series [1] the target is T1, Pgk1 (Homo sapiens, UniProt P00558).
T1 sequence (P00558 1-417): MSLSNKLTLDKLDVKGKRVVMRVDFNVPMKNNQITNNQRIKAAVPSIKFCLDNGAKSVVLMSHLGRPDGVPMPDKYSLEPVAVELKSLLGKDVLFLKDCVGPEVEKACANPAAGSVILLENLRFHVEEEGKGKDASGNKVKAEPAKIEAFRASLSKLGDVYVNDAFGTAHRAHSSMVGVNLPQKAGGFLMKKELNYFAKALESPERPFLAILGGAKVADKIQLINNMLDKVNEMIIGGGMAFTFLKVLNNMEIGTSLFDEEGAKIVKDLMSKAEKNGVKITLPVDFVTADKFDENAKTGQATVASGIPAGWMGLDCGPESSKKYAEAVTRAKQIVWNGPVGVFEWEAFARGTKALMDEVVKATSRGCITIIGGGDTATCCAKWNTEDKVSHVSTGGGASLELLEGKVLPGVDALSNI
As to the kind of experiment: Affinity for Pgk1 protein (Biacore T200 chip). It is filed as binding. Conditions: for Rmax: amount of drug bound to the target protein when the affinity was detected. As to the method:
Purified Pgk1 protein (with a concentration of 1 mg/mL) was immobilized on a Biacore T200 chip. […] The obtained curves can calculate parameters such as affinity and Rmax.
A general note: SPR reads the build-up and loss of mass on a sensor chip optically.

Series [2] relates to MPTP-induced Parkinson's disease model mice. As to the kind of experiment: Rotarod motor ability in MPTP-induced Parkinson's disease model. It is filed as in vivo. Conditions: day 7 after MPTP injection. As to the method: (§1) Male mice aged 3 months were used and fed normally. The acute MPTP modeling method (see Sonsalla PK, Heikkila RE. The influence of dose and dosing interval on MPTP-induced dopaminergic neurotoxicity in mice. Eur J Pharmacol 1986; 129(3): 339-45.) was employed. MPTP was injected intraperitoneally four times in total at a dose of 20 mg/kg body weight per injection, with a 2-hour interval between each injection. MPTP was dissolved in normal saline, and the control group received an equal dose of normal saline. T2 was dissolved in DMSO and diluted with normal saline to the desired concentration. Accordingly, equal doses of DMSO and normal saline were administered during the treatment. On the day of MPTP model establishment, mice were administered either T2 (treatment group) or DMSO (control group). Subsequently, mice in all groups were administered the corresponding drugs daily. Mouse behavior was tested using a rotarod (E103, UGO BASILE). First, mice were pre-trained for two consecutive days at a constant speed of 15 revolutions per minute (15 rpm) until they could stay on the rod for more than 60 seconds. […] The latency to fall from the rotarod was recorded, and the behavior was monitored by a camera. […] Therefore, whether dopaminergic neurons were damaged can be determined by Western blot assay using an anti-TH antibody.

The subject of series [3] is Tyrosine hydroxylase (TH). Description: Striatal tyrosine hydroxylase Western blot in MPTP-induced Parkinson's disease model. It is filed as in vivo, mice. Conditions: 0.1 mg/Kg, striatal tissue. As to the method:
as §1
On the technique in general: Immunoblotting shows a protein as a band on a membrane.

The subject of the next series is SK-N-SH cells. As to the kind of experiment: Cellular ATP levels (Promega ATP assay kit). Conditions: for cell growth: 50 µM; for optimal dose (cellular ATP levels): doses of 5 µM, 10 µM and 50 µM; for optimal dose (cellular ATP levels) / activity in increasing cellular ATP: 48 hours; for activity in increasing cellular ATP: SK-N-SH cells, 10 µM, 5% O2, untreated control defined as 1 (FIG. 1). It is filed as cell-based, human. As to the method: Human Neuroblastoma Cell Line (SK-N-SH) is a human-derived neuroblastoma cell line. SK-N-SH cells were seeded in a 6-well plate at a density of 6×10^4 cells per well. The cells were cultured for 12 hours under 5% O2. Various drugs at a concentration of 10 µM were added. After 48 hours, the cells were harvested. Celluar ATP levels were measured using the Promega ATP assay kit. The experiment was repeated 6 times to 10 times. The experimental results were illustrated in FIG. 1. […] T1 to T11 were the experimental groups.
SK-N-SH cells were seeded in a 6-well plate at a density of 6×10^4 per well. Cells were cultured for 12 hours under 5% O2, and the drug was added. Cells were harvested after 48 hours. Cellular ATP levels were measured using a Promega ATP assay kit. The experiment was repeated 5 times to 7 times.

A further series deals with Wild-type mice (C57BL/6). Description: Blood glucose in normal mice in vivo. The following applies: 0.1 mg/kg intraperitoneally, fasted 6 hours after administration.
Series [4] addresses T1, Pgk1. Description: In vitro biochemical Pgk1 enzymatic activity (NADH production, absorbance 339 nm). On the set-up: made in house; host or cells: E. coli BL21(DE3). Conditions: for optimal concentration for activating Pgk1: purified Pgk1-His 2 µg/mL, 10 minutes at room temperature. As to the method: Human Pgk1 cDNA was cloned into the pEASYTM-E2 vector (TransGen Biotech) containing a His tag. Protein expression was induced in BL21(DE3) chemocompetent cells (TransGen Biotech) with 0.5 mM IPTG. After lysing cells in extraction buffer (20 mM sodium phosphate, 500 mM NaCl, 5 mM imidazole, 5% glycerol, protease inhibitor cocktail, pH 7.9), the supernatant was purified with nickel beads (AdarBiotech). The His-tagged Pgk1 was eluted with the elution buffer (20 mM sodium phosphate, 500 mM NaCl, 80 mM imidazole, protease inhibitor cocktail, pH 7.9). The activity of Pgk1 can be measured by monitoring the rate of NADH production, as NADH accumulated as the reaction proceeded. Purified Pgkl-His protein (2 µg/mL) was added to the reaction buffer (20 mM Tris, 100 mM NaCl, 2 mM DTT, 0.1 mM MgSO4, 10 mM NaHPO4, pH 8.6), and the substrates (1.6 mM GAP, 1 mM β-NAD, 1 mM ADP, 20 ng/µL GAPDH) was added. […] After reaction for 10 minutes at room temperature, the absorbance wavelength at 339 nm was measured using a microplate reader (Molecular Devices, SpectraMax i3x), and this wavelength corresponds to NADH levels.

Series [5] relates to db/db mice. As to the kind of experiment: Hypoglycemic effect in diabetic model mice, intraperitoneal injection. It is filed as in vivo. Conditions: 4 hours later. As to the method: Gene knockout db/db mice are a classic model of hyperglycemia and obesity. Under normal feeding conditions, mice aged 3 months or older developed hyperglycemia and obesity. After the mice were provided with only drinking water (fasted) for 6 hours, blood was collected from the tail of the mice to measure blood glucose values. Subsequently, different drugs, including saline (control), liraglutide at 0.6 mg/Kg, low-concentration T6 (T6 low, 0.1 mg/Kg), and high-concentration T6 (T6 high, 0.5 mg/Kg), were injected intraperitoneally. 4 hours later, blood was collected from the tail of the mice to measure the blood glucose levels. Each group consisted of 6 mice. Blood glucose levels before administration (Vbefore) and after administration (Vafter) were obtained for each mouse. The effect of the drug on blood glucose (%) was calculated as follows: (Vbefore−Vafter) × 100/Vbefore . [formula]

In series [6] the target is T1, Pgk1. The following applies: cited from earlier work.
The subject of a further series is α1 adrenergic receptor. The following applies: cited from earlier work.
Series [7] concerns stable Pgk1-knockdown SK-N-SH cell line. Description: Mitochondrial respiration (Seahorse) in Pgk1-knockdown cells. Format: cell-based, human. Conditions: 10 µM, shPgk1 knockdown cells.
Method: Cellular mitochondrial stress was detected using a Seahorse XFe analyzer (XFe-24, Seahorse Bioscience, Billerica, MA, UAS) to measure the oxygen consumption rate (OCR). SH-SKN cell lines were seeded in a 24-well plate compatible with the Seahorse XFe analyzer. After 24 hours, cells were treated with DMSO (0.01%) or various drugs (10 µM). Cellular mitochondrial stress was detected 12 hours after drug treatment. For the mitochondrial stress test, 97.2 mL of Seahorse basal medium (Seahorse Bioscience, Billerica, MA, UAS) was taken and heated in a water bath to 37°C, and 1 mL of a stock solution was added. The stock solution was prepared by mixing the following solutions: 1 mL of 200 mM L-glutamine solution (Sigma), 1 mL of 100 mM pyruvate solution (Sigma), and 800 µL of 2.5 M glucose solution, and the pH of the stock solution was adjusted to 7.4 with 1 M NaOH solution. Before detection, the probe plate was taken out, and 1 mL of XF Carlibrant solution (Seahorse Bioscience) was added to the probe plate. The plate was then incubated overnight in a CO2-free constant temperature incubator at 37°C. After drug treatment, the cells were removed and washed twice with preheated Seahorse basal medium at 37°C, ensuring that 500 µL of Seahorse basal medium remained in each well. The cells were incubated in a CO2-free constant temperature incubator at 37°C for 1 hour. […]
The test system of series [8] is db/db mice. Description: Long-term hypoglycemic and weight-loss effects in diabetic model mice, drinking water. Format: in vivo. The following applies: 7 days, T6 1.5 mg/kg. As to the method:
After 7 days of treatment, changes in glycated hemoglobin (HbA1c) level, insulin level in mouse blood, and body weight, were measured.

Where [9] appears, read: Pgk1 immobilized on Biacore T200 chip, read-out: Affinity.

Read-outs that look alike come from different tables or passages of the source.

Method for Wild-type mice (C57BL/6): Wild-type mice (C57BL/6) aged 3 months to 4 months under normal feeding conditions were intraperitoneally injected with different drugs at 0.1 mg/kg. Mice injected with normal saline served as the control group. Mice were fasted for 6 hours after administration. Blood was collected from the tail of each mouse to measure blood glucose levels. Each group consisted of 9 mice.

As for `CC1(C)Oc2cc3cc(N4CCN(C(=O)[C@H]5CCCO5)CC4)nc(N)c3cc2O1` [Compound T4], at Pgk1 [1] (setting [9]), the Kd came out at 725 µM. The Rmax at Pgk1 [1] was determined as 75 RU.

As for `Nc1nc(N2CCN(C(=O)[C@@H]3CCCO3)CC2)cc2cc3c(cc12)OCO3` [Compound T2], the Kd at Pgk1 [1] (setting [9]) worked out at 449 µM. Moreover, the “motor ability (rotarod)” value in series [2] (three doses 0.1 mg/Kg, 0.3 mg/Kg and 1 mg/Kg daily) is given as “exerted protective effects”. The “tyrosine hydroxylase protein levels / effect on dopaminergic neurons” value in series [3] is reported as “protective effect on dopaminergic neurons”.

Consider `COc1cc2nc(N3CCN(C(=O)C4CCCO4)CC3)nc(N)c2cc1OC` (centres unmarked) [Terazosin, terazosin, reference compound], for which, in the series with SK-N-SH cells, the cell growth result was “tendency to inhibit cell growth” and the “optimal dose (cellular ATP levels)” value amounted to 10 µM. In the series with Wild-type mice (C57BL/6), the “hypoglycemic effect (blood glucose)” value is given as “did not exhibit a hypoglycemic effect”. The “motor ability (rotarod)” value in [2] (0.1 mg/Kg daily) is “improved the motor ability”. Besides, the “tyrosine hydroxylase protein levels / effect on dopaminergic neurons” value in series [3] is on record as “protective effect on dopaminergic neurons”. Moreover, on Pgk1 [4] (high concentration, 100 µM), the “inhibition of Pgk1 enzymatic activity” value is given as “can inhibit Pgk1 enzymatic activity”. Moreover, the “optimal concentration for activating Pgk1” value at Pgk1 [4] turned out to be 1 µM.

liraglutide: the “hypoglycemic effect (blood glucose)” value in the series with db/db mice [5] (0.6 mg/Kg intraperitoneally) was “optimal hypoglycemic effect”.

Turning to `Nc1nc(N2CCN(C(=O)C3CCCC3)CC2)cc2cc3c(cc12)OCO3` [Compound T7], on Pgk1 [1] (setting [9]), the Kd worked out at 878 µM.

With `CC1Oc2cc3cc(N4CCN(C(=O)[C@H]5CCCO5)CC4)nc(N)c3cc2O1` (some centres unmarked) [Compound T3], the Kd on Pgk1 [1] (setting [9]) is 684 µM. This molecule came in with an Rmax at Pgk1 [1] of 93 RU.

On to `COc1cc2cc(N3CCN(C(=O)C4CCCO4)CC3)nc(N)c2cc1OC` (centres unmarked) [TZ-md], for which, at Pgk1 [6], the “effect of activating Pgk1” value is “still retains the effect of activating Pgk1”. In addition, in the series on α1 adrenergic receptor, the “inhibition of the α1 adrenergic receptor” value was “does not inhibit the α1 adrenergic receptor”.

Take `Nc1nc(N2CCN(C(=O)[C@@H]3CCCN3)CC2)cc2cc3c(cc12)OCO3` [Compound T9]: the Kd at Pgk1 [1] (setting [9]) was determined as 811 µM. In addition, the Rmax at Pgk1 [1] worked out at 87 RU.

For the molecule `Nc1nc(N2CCN(C(=O)[C@H]3CCCO3)CC2)cc2cc3c(cc12)CCO3` [Compound T5], at Pgk1 [1] (setting [9]), the Kd came out at 273 µM. For the same molecule, at Pgk1 [1], the Rmax was found to be 86 RU.

With `Nc1ncnc2c1ncn2[C@@H]1O[C@H](COP(=O)(O)OP(=O)(O)O)[C@@H](O)[C@H]1O` [ADP, reference compound], on Pgk1 [1], the Rmax stood at 35 RU. Also, on Pgk1 [1] (unit inferred, read-out: KD value), the Kd came out at 337 µM.

Take `Nc1nc(N2CCN(C(=O)[C@H]3CCCO3)CC2)cc2cc3c(cc12)OCO3` [Compound T1]: on Pgk1 [1] (setting [9]), the Kd came out at 496 µM.

On to `Nc1nc(N2CCN(C(=O)c3ccco3)CC2)cc2cc3c(cc12)OCO3` [Compound T11], for which the “activity in increasing cellular ATP” value with SK-N-SH cells is “no such activity of increasing cellular ATP”. In addition, on Pgk1 [1] (setting [9]), the Kd is > 1000 µM. Further, on Pgk1 [1], the Rmax entry was “None”.

`Nc1nc(N2CCN(C(=O)[C@H]3CCCN3)CC2)cc2cc3c(cc12)OCO3` [Compound T8]: the Kd at Pgk1 [1] (setting [9]) turned out to be 473 µM. For the same molecule, the Rmax at Pgk1 [1] is 87 RU.

Turning to `Nc1nc(N2CCN(C(=O)[C@H]3CCCO3)CC2)cc2cc3c(cc12)OCC3` [Compound T6], in the series on SK-N-SH cells, the cell growth result is recorded as “tendency to inhibit cell growth” and the “optimal dose (cellular ATP levels)” value was 50 µM. In addition, the Kd at Pgk1 [1] (setting [9]) was 375 µM. Besides, in series [7], the basal respiratory rate result is reported as “absent” and the maximum respiratory rate result is given as “absent”. For the same molecule, in the series with db/db mice [5] (high concentration 0.5 mg/kg intraperitoneally), the “hypoglycemic effect (blood glucose)” value is given as “significant hypoglycemic effects”. Moreover, the “hypoglycemic effect (blood glucose)” value in the series on db/db mice [5] (low concentration 0.1 mg/kg intraperitoneally) is “significant hypoglycemic effects”. Also, the body weight entry with db/db mice [8] is “significant decrease in body weight”. Further, in the series with db/db mice [8] (terazosin 0.3 mg/kg, metformin 350 mg/kg, versus control group), the “glycated hemoglobin (HbA1c) level” value is reported as “decrease”. Moreover, the “inhibition of Pgk1 enzymatic activity” value against Pgk1 [4] (all different concentrations tested) is “none of the concentrations can inhibit Pgk1”. The “optimal concentration for activating Pgk1” value on Pgk1 [4] is on record as 0.1 µM.

`Nc1nc(N2CCN(C(=O)[C@H]3CCCO3)CC2)cc2cc3c(cc12)OCCO3` [Compound T10]: the “activity in increasing cellular ATP” value with SK-N-SH cells is “no such activity of increasing cellular ATP”. The Kd on Pgk1 [1] (setting [9]) is > 1000 µM. In addition, at Pgk1 [1], the Rmax result was “None”.
